ChEMBL document CHEMBL1201862, “PubChem BioAssay data set” (2004)
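These data come from cells grown in 96-well plates and exposed to compound for 48 hours at five concentrations. GI50 = concentration required for 50% inhibition of growth.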 The source made the active and inactive calls. Cut-off read from the data, not from the text of the source: active = GI50 up to about 1.1 µM and inactive = higher.

Columns and labels:
Test in all cases: DTP human tumour cell line panel, 48 h
[1] = test system: LXFL 529
[2] = test system: TK-10
[3] = test system: NCI-H522
[4] = test system: HCT-116
[5] = test system: SNB-78
[6] = test system: HCC 2998
[7] = test system: NCI-H460
[8] = test system: KM-20L2
[9] = test system: HT-29
[10] = test system: SK-MEL-5
[11] = test system: HCT-15
[12] = test system: RXF 393
[13] = test system: SN12C
[14] = test system: NCI-H226
[15] = test system: A498
[16] = test system: DLD-1
[17] = test system: SK-MEL-28
[18] = test system: DMS-273
[19] = test system: M14
[20] = test system: CAKI-1
[21] = test system: OVCAR-3
[22] = test system: Malme-3M
[23] = test system: RPMI-8226
[24] = test system: SK-MEL-2
[25] = test system: U-251
[26] = test system: MOLT-4
[27] = test system: A549
[28] = test system: OVCAR-5
[29] = test system: HOP-92
[30] = test system: EKVX
[31] = test system: UACC-62
[32] = test system: M19-MEL
[33] = test system: OVCAR-8
[34] = test system: SF-268
[35] = test system: DMS-114
[36] = test system: UO-31
[37] = test system: SNB-19
[38] = test system: UACC-257
[39] = test system: OVCAR-4
[40] = test system: KM12
[41] = test system: HL-60
[42] = test system: CCRF-CEM
[43] = test system: SW-620
[44] = test system: COLO 205
[45] = test system: SF-295
[46] = test system: HOP-62
[47] = test system: K562
[48] = test system: SNB-75
[49] = test system: LOX IMVI
[50] = test system: ACHN
[51] = test system: NCI-H23
[52] = test system: XF498
[53] = test system: 786-0
[54] = test system: IGROV-1
[55] = test system: SF-539
[56] = test system: SK-OV-3
[57] = test system: SR
[58] = test system: HOP-18

Cc1nc2sccn2c1C(=O)NC(=O)Nc1ccc(Cl)cc1
GI50 [1]: > 100 µM (inactive) | GI50 [2]: 30.9 µM (inactive) | GI50 [3]: 57 µM (inactive) | GI50 [4]: 46.2 µM (inactive) | GI50 [5]: 42.9 µM (inactive) | GI50 [6]: > 100 µM (inactive) | GI50 [7]: > 100 µM (inactive) | GI50 [8]: > 100 µM (inactive) | GI50 [9]: > 100 µM (inactive) | GI50 [10]: > 100 µM (inactive) | GI50 [11]: > 100 µM | GI50 [12]: 37.8 µM (inactive) | GI50 [13]: > 100 µM (inactive) | GI50 [14]: 71.9 µM (inactive) | GI50 [15]: > 100 µM (inactive) | GI50 [16]: > 100 µM (inactive) | GI50 [17]: > 100 µM (inactive) | GI50 [18]: 74.1 µM (inactive) | GI50 [19]: > 100 µM (inactive) | GI50 [20]: > 100 µM (inactive) | GI50 [21]: 60.3 µM (inactive) | GI50 [22]: > 100 µM (inactive) | GI50 [23]: > 100 µM (inactive) | GI50 [24]: > 100 µM (inactive) | GI50 [25]: 50.5 µM (inactive) | GI50 [26]: > 100 µM (inactive) | GI50 [27]: 57.4 µM (inactive) | GI50 [28]: > 100 µM (inactive) | GI50 [29]: 31.2 µM (inactive) | GI50 [30]: > 100 µM (inactive) | GI50 [31]: > 100 µM (inactive) | GI50 [32]: > 100 µM (inactive) | GI50 [33]: > 100 µM (inactive) | GI50 [34]: 39.6 µM (inactive) | GI50 [35]: 50.5 µM (inactive) | GI50 [36]: 59.2 µM (inactive) | GI50 [37]: 42.2 µM (inactive) | GI50 [38]: > 100 µM (inactive) | GI50 [39]: > 100 µM (inactive) | GI50 [40]: > 100 µM (inactive) | GI50 [41]: > 100 µM (inactive) | GI50 [42]: > 100 µM (inactive) | GI50 [43]: > 100 µM (inactive) | GI50 [44]: > 100 µM (inactive) | GI50 [45]: 70.8 µM (inactive) | GI50 [46]: 41.3 µM (inactive) | GI50 [47]: > 100 µM (inactive) | GI50 [48]: 24.3 µM (inactive) | GI50 [49]: > 100 µM (inactive) | GI50 [50]: > 100 µM (inactive) | GI50 [51]: 35.7 µM (inactive) | GI50 [52]: 19.2 µM (inactive) | GI50 [53]: 48.2 µM (inactive) | GI50 [54]: > 100 µM (inactive) | GI50 [55]: 41.2 µM (inactive)

Cc1c(N)c(C#N)c2n(C)c3ncccc3n2c1=O
GI50 [1]: > 100 µM (inactive) | GI50 [2]: > 100 µM (inactive) | GI50 [3]: > 100 µM (inactive) | GI50 [4]: > 100 µM (inactive) | GI50 [5]: > 100 µM (inactive) | GI50 [56]: > 100 µM (inactive) | GI50 [6]: > 100 µM (inactive) | GI50 [7]: > 100 µM (inactive) | GI50 [8]: > 100 µM (inactive) | GI50 [9]: > 100 µM (inactive) | GI50 [10]: > 100 µM (inactive) | GI50 [11]: > 100 µM | GI50 [12]: > 100 µM (inactive) | GI50 [13]: > 100 µM (inactive) | GI50 [14]: > 100 µM (inactive) | GI50 [16]: > 100 µM (inactive) | GI50 [17]: > 100 µM (inactive) | GI50 [18]: > 100 µM (inactive) | GI50 [19]: > 100 µM (inactive) | GI50 [20]: > 100 µM (inactive) | GI50 [21]: > 100 µM (inactive) | GI50 [22]: > 100 µM (inactive) | GI50 [23]: > 100 µM (inactive) | GI50 [24]: > 100 µM (inactive) | GI50 [25]: > 100 µM (inactive) | GI50 [26]: > 100 µM (inactive) | GI50 [27]: > 100 µM (inactive) | GI50 [57]: > 100 µM (inactive) | GI50 [29]: > 100 µM (inactive) | GI50 [30]: > 100 µM (inactive) | GI50 [31]: > 100 µM (inactive) | GI50 [32]: > 100 µM (inactive) | GI50 [33]: > 100 µM (inactive) | GI50 [34]: > 100 µM (inactive) | GI50 [36]: > 100 µM (inactive) | GI50 [37]: > 100 µM (inactive) | GI50 [38]: > 100 µM (inactive) | GI50 [39]: > 100 µM (inactive) | GI50 [40]: > 100 µM (inactive) | GI50 [41]: > 100 µM (inactive) | GI50 [42]: > 100 µM (inactive) | GI50 [43]: > 100 µM (inactive) | GI50 [58]: > 100 µM (inactive) | GI50 [44]: > 100 µM (inactive) | GI50 [45]: > 100 µM (inactive) | GI50 [46]: > 100 µM (inactive) | GI50 [47]: > 100 µM (inactive) | GI50 [48]: > 100 µM (inactive) | GI50 [49]: > 100 µM (inactive) | GI50 [50]: > 100 µM (inactive) | GI50 [51]: > 100 µM (inactive) | GI50 [52]: > 100 µM (inactive) | GI50 [53]: > 100 µM (inactive) | GI50 [55]: > 100 µM (inactive)

Cc1nc(Nc2nnc(-c3cc([N+](=O)[O-])cc([N+](=O)[O-])c3C)o2)sc1C(=O)CC(=O)Cc1nc2ccc(Cl)cc2nc1O
GI50 [1]: > 100 µM (inactive) | GI50 [2]: > 100 µM (inactive) | GI50 [3]: 61.4 µM (inactive) | GI50 [4]: > 100 µM (inactive) | GI50 [5]: 93.5 µM (inactive) | GI50 [56]: > 100 µM (inactive) | GI50 [6]: > 100 µM (inactive) | GI50 [7]: > 100 µM (inactive) | GI50 [8]: > 100 µM (inactive) | GI50 [9]: > 100 µM (inactive) | GI50 [10]: > 100 µM (inactive) | GI50 [11]: > 100 µM | GI50 [12]: > 100 µM (inactive) | GI50 [13]: > 100 µM (inactive) | GI50 [14]: > 100 µM (inactive) | GI50 [15]: > 100 µM (inactive) | GI50 [17]: > 100 µM (inactive) | GI50 [18]: 50.5 µM (inactive) | GI50 [19]: > 100 µM (inactive) | GI50 [20]: > 100 µM (inactive) | GI50 [23]: > 100 µM (inactive) | GI50 [24]: > 100 µM (inactive) | GI50 [25]: > 100 µM (inactive) | GI50 [26]: > 100 µM (inactive) | GI50 [27]: > 100 µM (inactive) | GI50 [28]: > 100 µM (inactive) | GI50 [57]: 77.6 µM (inactive) | GI50 [29]: > 100 µM (inactive) | GI50 [30]: 37.3 µM (inactive) | GI50 [31]: 33.6 µM (inactive) | GI50 [32]: > 100 µM (inactive) | GI50 [33]: > 100 µM (inactive) | GI50 [34]: > 100 µM (inactive) | GI50 [35]: > 100 µM (inactive) | GI50 [36]: > 100 µM (inactive) | GI50 [37]: > 100 µM (inactive) | GI50 [38]: > 100 µM (inactive) | GI50 [39]: > 100 µM (inactive) | GI50 [40]: > 100 µM (inactive) | GI50 [41]: > 100 µM (inactive) | GI50 [42]: > 100 µM (inactive) | GI50 [43]: > 100 µM (inactive) | GI50 [44]: > 100 µM (inactive) | GI50 [45]: > 100 µM (inactive) | GI50 [46]: > 100 µM (inactive) | GI50 [47]: 41.8 µM (inactive) | GI50 [48]: > 100 µM (inactive) | GI50 [49]: > 100 µM (inactive) | GI50 [50]: > 100 µM (inactive) | GI50 [51]: > 100 µM (inactive) | GI50 [52]: > 100 µM (inactive) | GI50 [54]: > 100 µM (inactive) | GI50 [55]: > 100 µM (inactive)
